According to US10294202B2, “Pyrrolidinones as herbicides” (FMC Corporation, priority 2013, dated 2019):

How the values were obtained:
[1] = test system: wheat, spring; experiment: Test D pre-/postemergence herbicide test; type: in vivo, Triticum aestivum; settings: for Plant response rating: Postemergence, Wheat, Spring, scale 0 to 100; for Plant response rating, Wheat, Spring: Preemergence, scale 0 to 100 (0 no effect, 100 complete control)
Source text: Seeds of plant species selected from bluegrass (annual bluegrass, Poa annua), blackgrass (Alopecurus myosuroides), canarygrass (littleseed canarygrass, Phalaris minor), chickweed (common chickweed, Stellaria media), galium (catchweed bedstraw, Galium aparine), bromegrass, downy (downy bromegrass, Bromus tectorum), field poppy (Papaver rhoeas), field violet (Viola arvensis), foxtail, green (green foxtail, Setaria viridis), deadnettle (henbit deadnettle, Lamium amplexicaule), ryegrass, Italian (Italian ryegrass, Lolium multiflorum), kochia (Kochia scoparia), lambsquarters (Chenopodium album), oilseed rape (Brassica napus), pigweed (Amaranthus retroflexus), chamomile (scentless chamomile, Matricaria inodora), Russian thistle (Salsola kali), speedwell (bird's-eye speedwell, Veronica persica), barley, spring (spring barley, Hordeum vulgare), wheat, spring (spring wheat, Triticum aestivum), buckwheat, wild (wild buckwheat, Polygonum convolvulus), mustard, wild (wild mustard, Sinapis arvensis), oat, wild (wild oat, Avena fatua), radish, wild (wild radish, Raphanus raphanistrum), […]), barley, winter (winter barley, Hordeum vulgare), and wheat, winter (winter wheat, Triticum aestivum) were planted into a silt loam soil and treated preemergence with test chemicals formulated in a non-phytotoxic solvent mixture which included a surfactant. At the same time, these species were planted in pots containing Redi-Earth® planting medium (Scotts Company, 14111 Scottslawn Road, Marysville, Ohio 43041) comprising spaghnum peat moss, vermiculite, wetting agent and starter nutrients and treated with postemergence applications of the test chemicals formulated in the same manner. Plants ranged in height from 2 to 18 cm (1- to 4-leaf stage). Treated plants and controls were maintained in a controlled growth environment for 7 to 21 days after which time all species were compared to controls and visually evaluated. Plant response ratings, summarized in Table D, are based on a scale of 0 to 100 where 0 is no effect and 100 is complete control. A dash (-) response means no test result.

[2] = test system: nightshade; experiment: Test C pre-/postemergence herbicide test; type: in vivo, Solanum ptycanthum; settings: Preemergence, 62 g ai/ha; scale 0 to 100
Source text: (§1) Seeds of plant species selected from blackgrass (Alopecurus myosuroides), ryegrass, Italian (Italian ryegrass, Lolium multiflorum), wheat (winter wheat, Triticum aestivum), galium (catchweed bedstraw, Galium aparine), corn (Zea mays), crabgrass, large (large crabgrass, Digitaria sanguinalis), foxtail, giant (giant foxtail, Setaria faberii), johnsongrass (Sorghum halepense), lambsquarters (Chenopodium album), morningglory (Ipomoea coccinea), nutsedge, yellow (yellow nutsedge, Cyperus esculentus), pigweed (Amaranthus retroflexus), ragweed (common ragweed, Ambrosia elatior), soybean (Glycine max), barnyardgrass (Echinochloa crus-galli), oilseed rape (Brassica napus), waterhemp (common waterhemp, Amaranthus rudis), kochia (Kochia scoparia), oat, wild (wild oat, Avena fatua), surinam grass (Brachiaria decumbens), foxtail, green (green foxtail, Setaria viridis), goosegrass (Eleusine indica), bromegrass, downy (downy bromegrass, Bromus tectorum), nightshade (eastern black nightshade, Solanum ptycanthum), cocklebur (common cocklebur, Xanthium strumarium), cupgrass, woolly (woolly cupgrass, Eriochloa villosa), bermudagrass (Cynodon dactylon), sunflower, (common oilseed sunflower, Helianthus annuus), Russian thistle (Salsola kali) and velvetleaf (Abutilon theophrasti) were planted into a blend of loam soil and sand and treated preemergence with test chemicals formulated in a non-phytotoxic solvent mixture which included a surfactant. At the same time, plants selected from these crop and weed species and also barley (winter barley, Hordeum vulgare), […]), chickweed (common chickweed, Stellaria media), deadnettle (henbit deadnettle, Lamium amplexicaule), and canarygrass (littleseed canarygrass, Phalaris minor) were planted in pots containing Redi-Earth® planting medium (Scotts Company, 14111 Scottslawn Road, Marysville, Ohio 43041) comprising spaghnum peat moss, vermiculite, wetting agent and starter nutrients and treated with postemergence applications of test chemicals formulated in the same manner. Plants ranged in height from 2 to 18 cm (1- to 4-leaf stage) for postemergence treatments. Treated plants and controls were maintained in a greenhouse for 13 to 15 days, after which time all species were compared to controls and visually evaluated. Plant response ratings, summarized in Table C, are based on a scale of 0 to 100 where 0 is no effect and 100 is complete control. A dash (-) response means no test result.

[3] = test system: bromegrass, downy; experiment: Test C pre-/postemergence herbicide test; type: in vivo, Bromus tectorum
Source text: as §1

[4] = test system: cupgrass, woolly; experiment: Test C pre-/postemergence herbicide test; type: in vivo, Eriochloa villosa
Source text: as §1

[5] = test system: watergrass, late; experiment: Test F flood (paddy) test; type: in vivo, Echinochloa oryzicola; settings: 21 d, scale 0-100
Summary of the method: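 Pots of sterilized Tama silt loam (35:50:15 sand:silt:clay, 2.6% organic matter) were sown so crop and weeds reached the 2.0–2.5-leaf stage; greenhouse 30/27 °C, 16-h photoperiod. Pots flooded to 3 cm, compound applied into paddy water, depth maintained. Visual rating vs untreated controls after 21 d, 0–100 scale.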

[6] = Preemergence, 62 g ai/ha, scale 0 to 100
[7] = Preemergence, 125 g ai/ha, scale 0 to 100 (0 no effect, 100 complete control)
[8] = Preemergence, 31 g ai/ha, scale 0 to 100 (0 no effect, 100 complete control)
[9] = Preemergence, 250 g ai/ha, scale 0 to 100 (0 no effect, 100 complete control)
[10] = Postemergence, 31 g ai/ha, scale 0 (no effect) to 100 (complete control)
[11] = Postemergence, 62 g ai/ha, scale 0 to 100 (0 no effect, 100 complete control)
[12] = Postemergence, 125 g ai/ha, scale 0 to 100 (0 no effect, 100 complete control)
[13] = Postemergence, 250 g ai/ha, scale 0 to 100 (0 no effect, 100 complete control)

Structure (SMILES) | Plant response rating ([1]; 31 g ai/ha) | Plant response rating ([1]; 62 g ai/ha) | Plant response rating ([1]; 125 g ai/ha) | Plant response rating ([1]; 250 g ai/ha) | Plant response rating, Wheat, Spring ([1]; 62 g ai/ha) | Plant response rating, Wheat, Spring ([1]; 125 g ai/ha) | Plant response rating, Wheat, Spring ([1]; 31 g ai/ha) | Plant response rating, Wheat, Spring ([1]; 250 g ai/ha) | Plant response rating, Watergrass, Late ([5]; 125 g ai/ha) | Plant response rating, Watergrass, Late ([5]; 250 g ai/ha) | Plant response rating, Watergrass, Late ([5]; 500 g ai/ha) | other results
O=C1NCC(c2ccc(F)c(F)c2)C1C(=O)Nc1ccccc1C(F)(F)F (racemic) [Compound 6] | 0 | 5 | 5 | 5 | 0 | 0 | 0 | 0 |  |  |  | Plant response rating ([1]; 16 g ai/ha): 0; Plant response rating, Wheat, Spring ([1]; 16 g ai/ha): 0
O=C1NCC(c2ccc(Cl)c(Cl)c2)C1C(=O)Nc1ccccc1F (racemic) [Compound 14] |  |  |  |  |  |  |  |  |  |  |  | Plant response rating, Nightshade [2]: 0; Plant response rating, Bromegrass, Downy [3, 6]: 0; Plant response rating, Bromegrass, Downy [3, 7]: 0; Bromegrass, Downy plant response rating [3, 8]: 0; Plant response rating, Bromegrass, Downy [3, 9]: 0; Plant response rating, Cupgrass, Woolly [4, 6]: 0; Plant response rating, Cupgrass, Woolly [4, 7]: 0; Cupgrass, Woolly plant response rating [4, 8]: 0; Plant response rating, Cupgrass, Woolly [4, 9]: 80
O=C1NCC(c2ccc(F)c(C(F)(F)F)c2)C1C(=O)Nc1cccc(F)c1F (racemic) [Compound 77] |  |  |  |  | 10 | 20 | 10 | 25 |  |  |  | 
O=C1NCC(c2ccc(F)c(F)c2)C1C(=O)Nc1cccc(F)c1F (racemic) [Compound 101] |  |  |  |  |  |  |  |  | 75 | 85 | 85 | Plant response rating, Watergrass, Late ([5]; 64 g ai/ha): 65
O=C1NCC(c2ccc(C(F)(F)F)cc2)C1C(=O)Nc1cccc(F)c1F (racemic) [Compound 202] | 0 | 0 | 0 | 5 | 5 | 25 | 0 | 35 |  |  |  | 
O=C1NCC(c2cccc(C(F)F)c2)C1C(=O)Nc1ccccc1F (racemic) [Compound 210] |  |  |  |  |  |  |  |  | 55 | 75 | 90 | 
O=C1NCC(c2cc(F)c(F)cc2F)C1C(=O)Nc1cccc(F)c1F (centres unmarked) [Compound 50] | 0 | 0 | 0 |  | 0 | 0 | 0 |  |  |  |  | Plant response rating ([1]; 16 g ai/ha): 0; Plant response rating, Wheat, Spring ([1]; 16 g ai/ha): 0; Plant response rating, Bromegrass, Downy [3, 10]: 0; Plant response rating, Bromegrass, Downy [3, 11]: 0; Plant response rating, Bromegrass, Downy [3, 12]: 0; Plant response rating, Bromegrass, Downy [3, 13]: 0; Plant response rating, Cupgrass, Woolly [4, 10]: 0; Plant response rating, Cupgrass, Woolly [4, 11]: 0; Plant response rating, Cupgrass, Woolly [4, 12]: 0; Plant response rating, Cupgrass, Woolly [4, 13]: 10
O=C1NCC(c2ccc(C(F)(F)F)cc2)C1C(=O)Nc1cccc(F)c1F (centres unmarked) [Compound 80, N-(2,3-difluorophenyl)-2-oxo-4-[4-(trifluoromethyl)phenyl]-3-pyrrolidinecarboxamide] | 0 | 0 | 0 | 0 | 10 | 10 | 0 | 20 |  |  |  | 
O=C1NC[C@H](c2cccc(C(F)(F)F)c2)[C@H]1C(=O)Nc1ccccc1F [Compound 204, (3R,4S)—N-(2-fluorophenyl)-2-oxo-4-[3-(trifluoromethyl)phenyl]-3-pyrrolidinecarboxamide] |  |  |  |  | 0 | 25 | 0 | 30 | 70 | 98 | 98 | 
O=C1NC[C@H](c2cccc(C(F)(F)F)c2)[C@H]1C(=O)Nc1cccc(F)c1F [Compound 206] |  |  |  |  | 25 | 45 | 10 | 65 | 100 | 100 | 100 | Plant response rating, Watergrass, Late ([5]; 64 g ai/ha): 90
O=C1NCC(c2ccc(C(F)(F)F)cc2)C1C(=O)Nc1ccccc1F (centres unmarked) [Compound 231] | 0 | 0 | 0 | 0 | 5 | 0 | 0 | 20 |  |  |  | 
CN1CC(c2ccc(F)c(F)c2)C(C(=O)Nc2cccc(F)c2F)C1=O (centres unmarked) [Compound 303] |  |  |  |  |  |  |  |  | 95 | 100 | 100 | Plant response rating, Watergrass, Late ([5]; 62 g ai/ha): 95
